The assay deals with GBS laboratory strains. The experiment in a line: MBC90:MIC90 ratio method of determining antibiotic tolerance. Particulars: for Phenotype: by MBC:MIC ratio; for MBC: 24 h, ≧90% non-viable cells, plate counts after 24 h antibiotic; for MIC: ≧90% growth-inhibited, OD600. The format is cell-based, Group B Streptococcus. As for the experimental part:
The inventors ascertained the incidence of antibiotic tolerance in GBS clinical isolates collected from cervicovaginal-rectal swabs, by investigating cell wall inhibitors used to eliminate GBS colonization in pregnant women before delivery as stated by the CDC guidelines. A ratio of the minimum bactericidal concentration (MBC) over minimum inhibitory concentration (MIC) after 24 h of antibiotic incubation or by determining quantitative kill curves has been used to define antibiotic tolerance previously.
The MBC:MIC ratio was calculated for laboratory strains using three β-lactam antibiotics (Penicillin G, Ampicillin, and Cefazolin) and a glycopeptide antibiotic (Vancomycin) (Table 1). Early-log phase cultures of GBS were treated with the individual antibiotics at a concentration of 0.25 to 512×MIC90. The optical density (OD600) of antibiotic treated cultures was used to determine the MIC90 after 24 h and a cell count was used to determine their MBC90. Susceptible, tolerant and intermediate strains were defined by their MBC:MIC ratio of ≦2:1, ≧32:1 and 4:1-16:1 respectively. […] The ratios characterized GBS strains A909 and 2603V/R as Susceptible, O90R as Tolerant, and NEM316 as Intermediate to Penicillin, Ampicillin, and Cefazolin. All four strains were susceptible to Vancomycin.
(I) Bacterial Strains and Culture Conditions. GBS strains A909 (serotype IA), 515 (serotype IA), NEM316 (serotype III), COHI (serotype III), 2603V/R (serotype V) and O90R (non-typable) were used in this study. E. coli Top10 cells were used for the recombination experiments. GBS was cultured in Todd Hewitt broth (THB) or Tryptic Soy 5% sheep blood (TS) media and E. coli in Luria-broth (LB) medium or agar. Antibiotics were used at the following concentrations: for GBS—penicillin G (MIC90 0.06 μg ml^−1), ampicillin (MIC90 0.12 μg ml^−1), vancomycin (MIC90 2 μg ml^−1), cefazolin (MIC90 1 μg ml^−1) and chloramphenicol (5 μg ml^−1); for E. coli—ampicillin (50 μg ml^−1) and chloramphenicol (5 μg ml^−1). Both GBS and E. coli cultures were grown at 37° C. (II) Tolerance Using the MBC:MIC Ratio Method. Three GBS laboratory strains (i.e., A909, NEM316, and O90R) were cultured overnight for 18 h at 37° C. in THB. Subcultures in THB were subsequently grown to exponential phase (OD600˜0.3; i.e. 5×10^5 cfu/ml) at 37° C. Cell cultures were then exposed to different concentrations of antibiotics (Penicillin G, Ampicillin, Cefozolin or Vancomycin). […] Cell cultures were dispersed every 18 h before OD600 was measured to determine the lowest concentration of antibiotic with 90% growth inhibition (MIC90). Antibiotic treated cells (8 μl) from each well were re-suspended into PBS (100 μl) and plated (54 μl) on TS agar plates and allowed to grow for an additional 24 h at 37° C. Cell count was performed to determine the lowest concentration of antibiotic with 90% killing of original inoculums (MBC90). (III) Penicillin Killing and Regrowth Tolerance Assay by Microbroth Dilution. Three GBS laboratory strains (i.e., A909, NEM316, and O90R) were cultured overnight for 18 h at 37° C. in THB. Subcultures in THB were subsequently grown to exponential phase (OD600˜0.3) at 37° C. Cell cultures were then exposed to different concentrations of Penicillin G (Sigma, St. Louis, Mo.). […] Cell cultures were dispersed. A 1:20 dilution of cells was re-plated into new wells containing fresh THB with 500 U Penase (to degrade residual penicillin). Cell cultures were allowed to re-grow for an additional 24 h at 37° C. before the OD600 was measured. (IV) Measuring Cell Viability by Determining ATP Concentration. GBS strains were cultured for 18 h at 37° C. in THB. These cells were inoculated into fresh THB and subsequently allowed to grow to exponential phase (OD600 0.25-0.3) at 37° C. One ml of each culture was centrifuged at 5,000×g for 4 min. The cell pellet was re-suspended in ATP-free water. […]

[1] abbreviates: Streptococcus, GBS strain 2603V/R.
Where [2] appears, read: Streptococcus, GBS strain NEM316.

One may read the MBC as the lowest tested concentration that kills the bacteria rather than only halting them. What is called MIC is the lowest concentration found to suppress growth. The MIC90 is the lowest concentration that inhibits either 90% of growth or 90% of the strains tested, depending on the study. As to `CC1(C)S[C@@H]2[C@H](NC(=O)Cc3ccccc3)C(=O)N2[C@H]1C(=O)O` [Penicillin G], the “Ratio (MBC90:MIC90)” value is on record as 1 (GBS strain 2603V/R), 1 (GBS strain A909), 8 (GBS strain NEM316) and 32 (GBS strain O90R). Moreover, the Phenotype entry by setting is: (GBS strain 2603V/R) “S (MBC:MIC ratio of ≦2:1)”; (GBS strain 2603V/R, listed as Penicillin) “Susceptible”; (GBS strain A909) “S (MBC:MIC ratio of ≦2:1)”; (GBS strain A909, listed as Penicillin) “Susceptible”; (GBS strain NEM316) “I (4:1-16:1)”; (GBS strain NEM316, listed as Penicillin) “Intermediate”. The Phenotype entry is, setting by setting: (GBS strain O90R) “PT (≧32:1)”; (GBS strain O90R, listed as Penicillin) “Tolerant”. For the same molecule, the MBC runs as follows: under setting [1], 0.06 µg/mL; (Streptococcus, GBS strain A909) 0.06 µg/mL; under setting [2], 0.48 µg/mL; (Streptococcus, GBS strain O90R) 3.84 µg/mL. Besides, the MIC by setting is: under setting [1], 0.06 µg/mL; (Streptococcus, GBS strain A909) 0.06 µg/mL; under setting [2], 0.06 µg/mL; (Streptococcus, GBS strain O90R) 0.12 µg/mL. The MIC90 (Streptococcus, for GBS, as stated under culture conditions) stood at 0.06 µg/mL.

The values are drawn from patent US8247170B2, “Detection of penicillin tolerance in Group B Streptococcus: single nucleotide polymorphisms in penicillin binding protein 4” (priority 2008, dated 2012).
